Experimental data: patent US20190091177A1, “METHOD OF TREATING SELECTED PATIENT POPULATION EXPERIENCING DRAVET SYNDROME” (ZOGENIX INTERNATIONAL LIMITED, priority 2017, published 2019)
Where two headings read alike, the source gives them in different places.

Tests used:
[1] = tested on: patients with Dravet syndrome; settings: cited from earlier work; for >50% Reduction in Seizures (patients) / Seizure-free Patients: fenfluramine and valproate, average daily dose 0.34 mg/kg/day for 1 to 22 years, 12 patients, 0.34 mg/kg/day
[2] = tested on: patients with Dravet syndrome; experiment: Study 1: Phase 3 randomized, double blind, placebo controlled study (ZX008-1501/ZX008-1502) of liquid fenfluramine formulation as adjunctive therapy; format: in vivo, human
Procedure: The first 119 subjects to be randomized in both identical studies combined were analyzed and reported as Study 1 (FIG. 1), covered by a Statistical Analysis Plan (SAP).
Primary and key secondary endpoints in the Study 1 SAP were pre-determined. All patients were treated twice per day over a period of 14 weeks using an oral syringe to administer the formulation. The treatment period included a two-week titration period and a 12-week maintenance period.
The initial results of Study 1 are outlined below. The randomized, double blind, placebo controlled, Phase 3 study enrolled 119 patients across sites in the United States, Canada, Europe and Australia. The median age of patients was 8 years, the mean age of patients was 9 years (range, 2-18 years) (FIG. 2).
Patients were titrated to their target dose over two weeks, and then remained at that fixed dose for 12 weeks. The mean baseline convulsive seizure frequency across the study groups was approximately 40 seizures per month. 110 (92%) patients completed the study (85% 0.8 mg/kg/day; 100% 0.2 mg/kg/day; 93% placebo).
The proportion of patients who achieved ≥75% seizure reductions, a secondary (non-key) efficacy measure, is also presented.
The mean number of convulsive seizure free days, defined as a day for which diary data are available and no convulsive seizures have been reported, was determined for each treatment group during the Baseline and T+M Periods. Using a parametric analysis, comparisons for the ZX008 groups to placebo were estimated from an ANCOVA model with treatment group (3 levels) and age group (<6 years, ≥6 years) as factors, log baseline number of convulsive seizure free days as a covariate and log convulsive seizure free days (Titration+Maintenance, or Maintenance Period) as response. The mean (SD) number of convulsive seizure free days per 28 days during the Baseline Period was 12.6 (7.68), 15.7 (6.80), and 14.6 (7.59) for the placebo, 0.2 and 0.8 mg/kg/day groups, respectively. […]

[3] = long-term fenfluramine treatment

Structure (SMILES): CCNC(C)Cc1cccc(C(F)(F)F)c1 (racemic) [Fenfluramine, (RS)-N-ethyl-1-[3-(trifluoromethyl)phenyl]propan-2-amine]
- >50% Reduction in Seizures (patients) [1]: 9/12 (75%)
- Seizure-free Patients [1]: 8/12 (66%)
- >50% Reduction in Seizures (patients) ([1]; listed as fenfluramine): 75%
- Seizure-free Patients ([1]; listed as fenfluramine): 66.6%
- Echocardiography monitoring for possible heart valve defects [1, 3]: No clinically relevant defects were identified
- Effect on types of seizures [1, 3]: effectively reduced the incidence of all types of seizures
- Mean (SD) non-convulsive seizure frequency per 28 days at the end of the T+M Period ([2]; 0.2 mg/kg/day, baseline 193.6 (478.45)): 93.7 (219.69) per 28 days
- Reduction from Baseline in non-convulsive seizure frequency (%, [SD]) ([2]; 0.8 mg/kg/day, end of T+M Period): 59.1% (40.14)
- Mean (SD) non-convulsive seizure frequency per 28 days at the end of the T+M Period ([2]; 0.8 mg/kg/day, baseline 335.2 (758.58)): 127.9 (297.39) per 28 days
